# According to patent US20160257697A1, “THIOPHENE-SUBSTITUTED TETRACYCLIC COMPOUNDS AND METHODS OFUSE THEREOF FOR THE TREATMENT OF VIRAL DISEASES” (priority 2013, published 2016):
# Where two headings read alike, the source gives them in different places.
# Key:
# Test in all cases: microbe, parasite or virus in culture
# Type in all cases: cell-based, Hepatitis C virus (HCV)
# HCV replicon 1B = conditions: Replicon Assay B
# Description: In an alternate assay (“Replicon Assay B”), 1000 cells were seeded per well in a 384-well collagen coated black plate from Greiner bio-one (Cat #781946) in 5% FBS. Inhibitors of this invention were added at 24 h post-seeding, and the plates were incubated for 3 days. Cells were subsequently lysed with Qiagen lysis buffer (Cat #1062731) to extract the RNA. HCV replicon RNA level was measured by real-time PCR using the RNA-to-CT kit from Applied Biosystem (Cat #4392656) and genotype-specific primers and probes. The amplicon was located within NS5B. […] (SEQ. ID NO. 2); the probe sequence was FAM-labeled […] (SEQ. ID NO. 3).
# The real-time RT-PCR reactions were run on ABI PRISM 7900HT or Viia7 Sequence Detection System using the following program: 48° C. for 30 minutes, 95° C. for 10 minutes, 40 cycles of 95° C. for 15 sec, 60° C. for 1 minutes.
# Data for replicons 1A, 1AY93H and 2B were obtained using Replicon Assay A and data for replicons 1AQ30D and 1B were obtained using Replicon Assay B.
# HCV replicon 1A = conditions: Replicon Assay A
# Procedure, shortened: (§1)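 Replicon cells incubated with compound for 3 days in medium with 5% FBS and 0.5% DMSO final. Replicon RNA measured in lysates by multiplex real-time RT-PCR (Neo set) against cyclophilin control, quantified from standard curves of Ct versus log ng replicon total RNA.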
# HCV replicon 2B = conditions: Replicon Assay A
# Procedure, shortened: as §1
# HCV replicon 1AY93H = conditions: Replicon Assay A
# Procedure, shortened: as §1
# [1] = Hepatitis C virus, HCV replicon 1A
# [2] = Hepatitis C virus, read-out: 2B IC50, HCV replicon 2B
# [3] = HCV replicon 1A Y93H, read-out: 1A Y93H IC50
# [4] = HCV replicon 2B, read-out: 2B IC50
# [5] = read-out: 1A Y93H IC50, HCV replicon 1A Y93H
# [6] = read-out: 2B IC50, HCV replicon 2B
# [7] = read-out: 1A Y93H IC50, replicon 1AY93H
# [8] = Hepatitis C virus, read-out: 1A Y93H IC50, HCV replicon 1A Y93H
structure (smiles),measurement,setting,value
COC(=O)N[C@H](C(=O)N1CCC[C@H]1c1ncc(-c2cc3c4c(c2)OC(c2ccc(Cl)s2)n2c-4c(c4cc(-c5cnc([C@@H]6CCCN6C(=O)[C@@H](NC(=O)OC)C(C)C)[nH]5)ccc42)CC3)[nH]1)C(C)C (stereo partly drawn) [Compound 834],IC50,"HCV replicon 1B; Hepatitis C virus, HCV replicon 1B",0.0488 nM
same,IC50,HCV replicon 1A; [1],0.0842 nM
same,IC50,HCV replicon 2B; [2],16.7 nM
"COC(=O)N[C@H](C(=O)N1CCC[C@H]1c1ncc(-c2cc(F)c3c(c2)OC(c2ccc(C4CC4)s2)n2c-3c(C)c3cc(-c4cnc([C@@H]5CCCN5C(=O)[C@@H](NC(=O)OC)C(C)C)[nH]4)ccc32)[nH]1)C(C)C (single isomer, unassigned) [Compound 842]",IC50,HCV replicon 1B; HCV replicon 1B,0.0014 nM
same,IC50,HCV replicon 1A; HCV replicon 1A,0.0066 nM
"CCc1c2n(c3ccc(-c4cnc(C5CCCN5C(=O)C(NC(=O)OC)C(C)C)[nH]4)cc13)C(c1ccc(C3CC3)s1)Oc1cc(-c3cnc(C4CCCN4C(=O)C(NC(=O)OC)C(C)C)[nH]3)cc(F)c1-2 (single isomer, unassigned) [Compound 839]",IC50,HCV replicon 1B; HCV replicon 1B,0.0023 nM
same,IC50,HCV replicon 1AY93H; [3],0.865 nM
same,IC50,HCV replicon 2B; [4],0.971 nM
"CCc1ccc(C2Oc3cc(-c4cnc([C@@H]5CCCN5C(=O)[C@@H](NC(=O)OC)C(C)C)[nH]4)cc(F)c3-c3cc4cc(-c5cnc([C@@H]6CCCN6C(=O)C(NC(=O)OC)C6C[C@@H](C)O[C@@H](C)C6)[nH]5)ccc4n32)s1 (single isomer, unassigned) [Compound 143]",IC50,"HCV replicon 1B; Hepatitis C virus, replicon 1B",0.0059 nM
same,IC50,HCV replicon 1A; replicon 1A,0.111 nM
"COC(=O)NC(C(=O)N1CCC[C@H]1c1ncc(-c2ccc3c(c2)cc2n3C(c3ccc(C4CC4)s3)Oc3cc(-c4cnc([C@@H]5CCCN5C(=O)[C@@H](NC(=O)OC)C(C)C)[nH]4)cc(F)c3-2)[nH]1)C1CCOC(C)(C)C1 (single isomer, unassigned) [Compound 225]",IC50,"HCV replicon 1B; Hepatitis C virus, replicon 1B",0.0102 nM
same,IC50,HCV replicon 1A; replicon 1A,0.0477 nM
same,IC50,"HCV replicon 2B; read-out: 2B IC50, replicon 2B",13.7 nM
"COC(=O)N[C@H](C(=O)N1CCC[C@H]1c1ncc(-c2ccc3c(c2)OC(c2cc4ccccc4s2)n2c-3cc3cc(-c4cnc([C@@H]5C[C@@H](F)CN5C(=O)[C@@H](NC(=O)OC)C5CCOCC5)[nH]4)ccc32)[nH]1)C(C)C (single isomer, unassigned) [Compound 627]",IC50,HCV replicon 1AY93H; [5],0.0157 nM
same,IC50,HCV replicon 1A; HCV replicon 1A,0.00302 nM
same,IC50,HCV replicon 2B; [6],0.631 nM
"COC(=O)NC(C(=O)N1CCC[C@H]1c1ncc(-c2cc(F)c3c(c2)OC(c2ccc(C4CC4)s2)n2c-3cc3cc(-c4cnc([C@@H]5CCCN5C(=O)[C@@H](NC(=O)OC)C(C)C)[nH]4)ccc32)[nH]1)C(C)(C)F (single isomer, unassigned) [Compound 70]",IC50,HCV replicon 1AY93H; [7],10.5 nM
same,IC50,"HCV replicon 1A; Hepatitis C virus, replicon 1A",0.0188 nM
same,IC50,"HCV replicon 2B; read-out: 2B IC50, replicon 2B",24.2 nM
"COC(=O)N[C@H](C(=O)N1CCC[C@H]1c1ncc(-c2cc(F)c3c(c2)OC(c2ccc(C4CCCCC4)s2)n2c-3cc3cc(-c4cnc([C@@H]5CCCN5C(=O)[C@@H](NC(=O)OC)C(C)C)[nH]4)ccc32)[nH]1)C(C)C (single isomer, unassigned) [Compound 530]",IC50,HCV replicon 1AY93H; [8],0.0499 nM
same,IC50,HCV replicon 1A; HCV replicon 1A,0.0131 nM
same,IC50,HCV replicon 2B; [6],0.488 nM
"COCc1ccc(C2Oc3cc(-c4cnc([C@@H]5CCCN5C(=O)[C@@H](NC(=O)OC)C(C)C)[nH]4)cc(F)c3-c3cc4cc(-c5cnc([C@@H]6CCCN6C(=O)[C@@H](NC(=O)OC)[C@@H]6C[C@@H](C)O[C@@H](C)C6)[nH]5)ccc4n32)s1 (single isomer, unassigned) [Compound 535]",IC50,HCV replicon 1AY93H; [5],0.0295 nM
same,IC50,HCV replicon 1A; HCV replicon 1A,0.00895 nM
same,IC50,HCV replicon 2B; [6],0.0736 nM
"COC(=O)NC(C(=O)N1CCC[C@H]1c1ncc(-c2cc(F)c3c(c2)OC(c2ccc(C4CC4)s2)n2c-3cc3cc(-c4cnc([C@@H]5CCCN5C(=O)[C@@H](NC(=O)OC)C(C)C)[nH]4)ccc32)[nH]1)C1CCOC(C)(C)C1 (single isomer, unassigned) [Compound 211]",IC50,HCV replicon 1AY93H; [7],0.22 nM
same,IC50,HCV replicon 1A; replicon 1A,0.0026 nM
same,IC50,"HCV replicon 2B; read-out: 2B IC50, replicon 2B",0.42 nM
"CCc1ccc(C2Oc3cc(-c4cnc([C@@H]5CCCN5C(=O)[C@@H](NC(=O)OC)C(C)C)[nH]4)cc(F)c3-c3cc4cc(-c5cnc([C@@H]6CCCN6C(=O)C(NC(=O)OC)C6CCOC(C)(C)C6)[nH]5)ccc4n32)s1 (single isomer, unassigned) [Compound 152]",IC50,HCV replicon 1AY93H; [7],0.48 nM
same,IC50,HCV replicon 1A; replicon 1A,0.0016 nM
same,IC50,"HCV replicon 2B; read-out: 2B IC50, replicon 2B",0.53 nM
"COC(=O)NC(C(=O)N1CCC[C@H]1c1ncc(-c2ccc3c(c2)cc2n3C(c3ccc(C4CC4)s3)Oc3cc(-c4cnc([C@@H]5CCCN5C(=O)[C@@H](NC(=O)OC)C(C)C)[nH]4)cc(F)c3-2)[nH]1)C1CC(C)(C)OC(C)(C)C1 (single isomer, unassigned) [Compound 420]",IC50,HCV replicon 1AY93H; [5],3.13 nM
same,IC50,HCV replicon 1A; [1],0.0029 nM
same,IC50,HCV replicon 2B; [6],6.03 nM
"COC(=O)N[C@H](C(=O)N1CCC[C@H]1c1ncc(-c2cc(F)c3c(c2)OC(c2cc(C)sc2C)n2c-3cc3cc(-c4cnc([C@@H]5CCCN5C(=O)[C@@H](NC(=O)OC)C(C)C)[nH]4)ccc32)[nH]1)C(C)C (single isomer, unassigned) [Compound 319]",IC50,"HCV replicon 1AY93H; Hepatitis C virus, read-out: 1A Y93H IC50 (nM), replicon 1AY93H",9.38 nM
same,IC50,"HCV replicon 1A; Hepatitis C virus, replicon 1A",0.001 nM
same,IC50,"HCV replicon 2B; Hepatitis C virus, read-out: 2B IC50 (nM), replicon 2B",8.06 nM
"COC(=O)NC(C(=O)N1CCC[C@H]1c1ncc(-c2ccc3c(c2)cc2n3C(c3ccc(C4CC4)s3)Oc3cc(-c4cnc([C@@H]5CCCN5C(=O)[C@@H](NC(=O)OC)C5CCOCC5)[nH]4)cc(F)c3-2)[nH]1)C(C)(C)F (single isomer, unassigned) [Compound 175]",IC50,HCV replicon 1AY93H; [7],9.03 nM
same,IC50,HCV replicon 1A; replicon 1A,0.0077 nM
same,IC50,"HCV replicon 2B; read-out: 2B IC50, replicon 2B",10.5 nM
"CCc1c2n(c3ccc(-c4cnc(C5CCCN5C(=O)C(NC(=O)OC)C(C)C)[nH]4)cc13)C(c1ccc(C3CC3)s1)Oc1cc(-c3cnc(C4CCCN4C(=O)C(NC(=O)OC)C(C)C)[nH]3)cc(F)c1-2 (single isomer, unassigned) [Compound 838]",IC50,HCV replicon 1B; HCV replicon 1B,0.0013 nM
same,IC50,HCV replicon 1A; HCV replicon 1A,0.0055 nM
"COC(=O)N[C@H](C(=O)N1CCC[C@H]1c1ncc(-c2cc(F)c3c(c2)OC(c2ccc(C#CC4CC4)s2)n2c-3cc3cc(-c4cnc([C@@H]5CCCN5C(=O)[C@@H](NC(=O)OC)C(C)C)[nH]4)ccc32)[nH]1)C(C)C (single isomer, unassigned) [Compound 85]",IC50,HCV replicon 1AY93H; [7],0.41 nM
same,IC50,"HCV replicon 1A; Hepatitis C virus, replicon 1A",0.0011 nM
same,IC50,"HCV replicon 2B; read-out: 2B IC50, replicon 2B",1 nM
"COC(=O)NC(C(=O)N1CCC[C@H]1c1ncc(-c2cc(F)c3c(c2)OC(c2ccc(C4CC4)s2)n2c-3cc3cc(-c4cnc([C@@H]5CCCN5C(=O)[C@@H](NC(=O)OC)C(C)C)[nH]4)ccc32)[nH]1)C1CCOC(C)(C)C1 (single isomer, unassigned) [Compound 217]",IC50,HCV replicon 1AY93H; [7],0.18 nM
same,IC50,HCV replicon 1A; replicon 1A,0.003 nM
same,IC50,"HCV replicon 2B; read-out: 2B IC50, replicon 2B",0.39 nM
COC(=O)N[C@H](C(=O)C1NCC[C@H]1c1ncc(-c2ccc3c(c2)OC(c2ccc(C4CC4)s2)n2c-3cc3cc(-c4c[nH]c([C@@H]5C[C@H]6C[C@H]6N5C(=O)[C@@H](NC(=O)OC)C(C)C)n4)ccc32)[nH]1)C(C)C (mixture of isomers) [Compound 504],IC50,HCV replicon 1AY93H; [8],0.245 nM
same,IC50,HCV replicon 1A; [1],0.0167 nM
same,IC50,HCV replicon 2B; [2],1.52 nM
"COC(=O)NC(C(=O)N1CCCC1c1ncc(-c2cc(F)c3c(c2)OC(c2ccc(CC(C)(C)OC)s2)n2c-3cc3cc(-c4cnc(C5CCCN5C(=O)C(NC(=O)OC)C5CCOC(C)(C)C5)[nH]4)ccc32)[nH]1)C(C)C (single isomer, unassigned) [Compound 850]",IC50,HCV replicon 1AY93H; [3],0.855 nM
same,IC50,HCV replicon 1A; HCV replicon 1A,0.0028 nM
same,IC50,HCV replicon 2B; [4],0.375 nM
"[2H]C(C)(C)C(NC(=O)OC)C(=O)N1CCC[C@H]1c1ncc(-c2cc(F)c3c(c2)OC(c2ccc(C4CC4)s2)n2c-3cc3cc(-c4cnc([C@@H]5CCCN5C(=O)[C@@H](NC(=O)OC)C(C)C)[nH]4)ccc32)[nH]1 (single isomer, unassigned) [Compound 29]",IC50,HCV replicon 1AY93H; [7],1.32 nM
same,IC50,HCV replicon 1A; replicon 1A,0.0024 nM
same,IC50,"HCV replicon 2B; read-out: 2B IC50, replicon 2B",1.98 nM
"COC(=O)NC(C(=O)N1CCC[C@H]1c1ncc(-c2ccc3c(c2)cc2n3C(c3ccc(C4CC4)s3)Oc3cc(-c4cnc([C@@H]5CCCN5C(=O)[C@@H](NC(=O)OC)C(C)C)[nH]4)cc(F)c3-2)[nH]1)C1CCO[C@H](C)C1 (single isomer, unassigned) [Compound 137]",IC50,HCV replicon 1AY93H; [7],0.28 nM
same,IC50,HCV replicon 1A; replicon 1A,0.0018 nM
same,IC50,"HCV replicon 2B; read-out: 2B IC50, replicon 2B",0.37 nM
"COC(=O)NC(C(=O)N1CCC[C@H]1c1ncc(-c2ccc3c(c2)cc2n3C(c3ccc(C(C)C)s3)Oc3cc(-c4cnc([C@@H]5CCCN5C(=O)[C@@H](NC(=O)OC)C(C)C)[nH]4)cc(F)c3-2)[nH]1)C1C[C@@H](C)O[C@@H](C)C1 (single isomer, unassigned) [Compound 235]",IC50,HCV replicon 1AY93H; [7],3.87 nM
same,IC50,HCV replicon 1A; replicon 1A,0.0013 nM
same,IC50,"HCV replicon 2B; read-out: 2B IC50, replicon 2B",10.2 nM
"COC(=O)N[C@H](C(=O)N1C[C@H](F)C[C@H]1c1ncc(-c2ccc3c(c2)OC(c2ccc(C)s2)n2c-3cc3cc(-c4cnc([C@@H]5C[C@H]6C[C@H]6N5C(=O)[C@@H](NC(=O)OC)C(C)C)[nH]4)ccc32)[nH]1)C(C)C (single isomer, unassigned) [Compound 708]",IC50,HCV replicon 1AY93H; [5],0.042 nM
same,IC50,HCV replicon 1A; HCV replicon 1A,0.018 nM
same,IC50,HCV replicon 2B; [6],3.05 nM
